The results in this text go back to patent US20160045513A1, “ISOXAZOLE COMPOUND FOR THE TREATMENT OF CANCER” (Novartis AG, priority 2007, published 2016).

In assay [1] the test system is BN472 xenograft. The assay is described as follows: antitumor effect in the rat breast cancer model BN-472. Type of assay: in vivo. The settings on record: for T/C (%) / ΔTumor volume (mm^3): qw, i.v.; for ΔTumor volume (mm^3): mean ±SEM. As to the method:
The transplantable rat breast cancer tumor BN472 is serially passaged as fragments in female syngeneic Brown Norway rats. The injection site is orthotopically in the mammary fat pad. Treatment with AUY922 is initiated when the average tumor volume reaches approximately 100 mm^3. Tumor growth is monitored at regular intervals. The xenograft tumor sizes are measured manually with calipers and the tumor volume is estimated using the formula: (W×L^2×π/6), where width (W) and height (H) are the two largest diameters. Results are presented as mean ±SEM. Tumor data were analyzed by ANOVA with post hoc Dunnet's test for comparison of treatment versus control group. As a measure of efficacy the % T/C value is calculated at the end of the experiment according to: (Δtumor volumetreated/Δtumor volumecontrol)*100 where Δtumor volumes represent the mean tumor volume on the evaluation day minus the mean tumor volume at the start of the experiment. The antitumor effect of AUY922 is evaluated in the BN472 xenograft model. Each group consists of seven tumor bearing animals. At the end of the study, the tumor sizes in the treatment groups are compared to those of the vehicle treated groups and the effect is expressed as %T/C.

Assay [2] concerns CA20948 xenograft. The assay is described as follows: antitumor effect in the rat pancreatic cancer model CA20948. Type of assay: in vivo. The following applies: for T/C (%) / ΔTumor volume (mm^3): qw; for ΔTumor volume (mm^3): mean ±SEM, *P < 0.05. As to the method: The transplantable rat pancreatic tumor CA20948 is serially passaged as cell homogenates in male syngeneic Lewis rats. The injection site is subcutaneously on the right flank. […] Tumor growth is monitored at regular intervals. The xenograft tumor sizes is measured manually with calipers and the tumor volume is estimated using the formula: (W×L^2×π/6), where width (W) and height (H) are the two largest diameters. Results are presented as mean ±SEM. Tumor data were analyzed by ANOVA with post hoc Dunnet's test for comparison of treatment versus control group. As a measure of efficacy the % T/C value is calculated at the end of the experiment according to: (Δtumor volumetreated/Δtumor volumecontrol)*100 where Δtumor volumes represent the mean tumor volume on the evaluation day minus the mean tumor volume at the start of the experiment. The antitumor effect of AUY922 is evaluated in the CA20948 xenograft model. Each group consisted of six tumor bearing animals. At the end of the study, the tumor sizes in the treatment groups are compared to those of the vehicle treated groups and the effect is expressed as % T/C.

For assay [3], the system named is CXF 609. The assay is described as follows: clonogenic assay, human tumor xenografts in vitro. The following applies: Colon, CXF 609, Adeno carcinoma, soft agar, read-out: IC50 (nM), colony formation. The class given is cell-based. The method, then: (§1) The anticancer activity of 5-(2,4-Dihydroxy-5-isopropyl-phenyl)-4-(4-morpholin-4-ylmethyl-phenyl)-isoxazole-3-carboxylic acid ethylamide is evaluated in 30 human tumor xenografts in vitro using a clonogenic assay. In this assay, human cells derived from cancer patients are evaluated for the capacity of 5-(2,4-Dihydroxy-5-isopropyl-phenyl)-4-(4-morpholin-4-ylmethyl-phenyl)-isoxazole-3-carboxylic acid ethylamide to inhibit the formation of 3 dimensional colonies. […] The tumor xenografts which have never been cultured in cell culture plastic dishes are isolated from nude mice. Tumor cell suspensions are prepared and incubated in 24 well plates containing layers of soft agar. Under these conditions a special subpopulation of cells selectively grows to colonies. 5-(2,4-Dihydroxy-5-isopropyl-phenyl)-4-(4-morpholin-4-ylmethyl-phenyl)-isoxazole-3-carboxylic acid ethylamide was tested in 6 concentrations up to […]. The tumor test panel comprises 1 to 6 models of 10 different human tumor or cancer types, which were bladder cancer, colon, liver, non small cell lung (adeno, squamous epithelium and large cell), small cell lung, mammary, ovary, pancreatic, melanoma and pleuramesothelioma. Antitumor effects are recorded as inhibition of colony formation in relation to untreated controls. Further information on the method has been published (Burger et al., 2004; Fiebig et al., 2004; Smith et al., 2005).
(§2) The cells are continually exposed to 5-(2,4-Dihydroxy-5-isopropyl-phenyl)-4-(4-morpholin-4-ylmethyl-phenyl)-isoxazole-3-carboxylic acid ethylamide and colony formation is determined.
(In xenograft studies the graft and the host belong to different species.)

The subject of assay [4] is LXFS 650. The assay is described as follows: clonogenic assay, human tumor xenografts in vitro. The settings on record: Lung, small cell, LXFS 650, Small cell lung carcinoma, soft agar, read-out: IC50 (nM), colony formation. Type of assay: cell-based. As to the method:
as §1, §2

For assay [5], the system named is LXFA 526. The assay is described as follows: clonogenic assay, human tumor xenografts in vitro. The settings on record: Lung, non-small cell, LXFA 526, Adeno carcinoma, soft agar, read-out: IC50 (nM), colony formation. The class given is cell-based. The method, then:
as §1, §2

Assay [6] deals with CXF 1729. The assay is described as follows: clonogenic assay, human tumor xenografts in vitro. Type of assay: cell-based. The following applies: Colon, CXF 1729, Carcinoma, soft agar, read-out: IC50 (nM), colony formation. As to the method: as §1, §2
Assay [7] relates to LXFA 983. Nature of the assay: clonogenic assay, human tumor xenografts in vitro. The class given is cell-based. The settings on record: Lung, non-small cell, LXFA 983, Adeno carcinoma, soft agar, read-out: IC50 (nM), colony formation. As to the method: as §1, §2
Assay [8] has as its system LXFA 297. The assay is described as follows: clonogenic assay, human tumor xenografts in vitro. Type of assay: cell-based. The following applies: Lung, non-small cell, LXFA 297, Adeno carcinoma, soft agar, read-out: IC50 (nM), colony formation. The method, then: as §1, §2
The subject of assay [9] is OVXF 1544. The assay is described as follows: clonogenic assay, human tumor xenografts in vitro. The class given is cell-based. The following applies: Ovary, OVXF 1544, Carcinoma, soft agar, read-out: IC50 (nM), colony formation. As to the method:
as §1, §2

Assay [10] has as its system LXFA 629. Nature of the assay: clonogenic assay, human tumor xenografts in vitro. The settings on record: Lung, non-small cell, LXFA 629, Adeno carcinoma, soft agar, read-out: IC50 (nM), colony formation. Type of assay: cell-based. As to the method: as §1, §2
In assay [11] the test system is BXF 1228. The assay is described as follows: clonogenic assay, human tumor xenografts in vitro. The class given is cell-based. The settings on record: Bladder, BXF 1228, Transitional cell carcinoma, soft agar, read-out: IC50 (nM), colony formation. The method, then:
as §1, §2

Assay [12] relates to LIXF 575. Nature of the assay: clonogenic assay, human tumor xenografts in vitro. The class given is cell-based. The following applies: Liver, LIXF 575, Hepatocellular carcinoma, soft agar, read-out: IC50 (nM), colony formation. As to the method: as §1, §2
The test system of assay [13] is LXFE 1422. The assay is described as follows: clonogenic assay, human tumor xenografts in vitro. Type of assay: cell-based. The settings on record: Lung, non-small cell, LXFE 1422, Squamous cell carcinoma, soft agar, read-out: IC50 (nM), colony formation. As to the method: as §1, §2
Assay [14] concerns BXF 1218. The assay is described as follows: clonogenic assay, human tumor xenografts in vitro. Type of assay: cell-based. The following applies: Bladder, BXF 1218, Transitional cell carcinoma, soft agar, read-out: IC50 (nM), colony formation. As to the method:
as §1, §2

Assay [15] relates to MAXF 401. Nature of the assay: clonogenic assay, human tumor xenografts in vitro. Type of assay: cell-based. The following applies: MAXF401, Breast, MAXF 401, Pap. adeno carcinoma, soft agar, read-out: IC50 (nM), colony formation. As to the method:
as §1, §2

Broadly, the IC50 is the concentration that inhibits the measured activity by half.

In the case of `CCNC(=O)c1noc(-c2cc(C(C)C)c(O)cc2O)c1-c1ccc(CN2CCOCC2)cc1` [AUY922, 5-(2,4-Dihydroxy-5-isopropyl-phenyl)-4-(4-morpholin-4-ylmethyl-phenyl)-isoxazole-3-carboxylic acid ethylamide], the “T/C (%)” value in assay [1] (25 mg/kg) is reported as 78%; in assay [1] (50 mg/kg) it was 21%; in assay [2] (50 mg/kg, i.v.), 30%; in [2] (75 mg/kg, i.v), 21%. Also, the “ΔTumor volume (mm^3)” value in [1] (25 mg/kg) is on record as 4357 ± 1338 mm^3; in assay [1] (50 mg/kg, *P < 0.05), 1148 ± 152* mm^3; in assay [2] (50 mg/kg, i.v.), 7090 ± 2553* mm^3; in assay [2] (75 mg/kg, i.v) it was 4796 ± 1354* mm^3. For the same compound, the “reduction of tumor sizes versus vehicle” value is “Statistically significant reduction of tumor sizes” in assay [1] (once per week at 50 mg/kg); “Statistically significant reduction of tumor sizes” in [2] (once per week at 50 and 75 mg/kg). For the same compound, the IC50 in assay [3] came to 55 nM; in [4], 2 nM; in assay [5] it was 5 nM; in [6] it was 467 nM; in assay [7], 126 nM; in assay [8], 28 nM. Moreover, the IC50 in [9] amounted to 53 nM; in assay [10], 35 nM; in assay [11] it was 630 nM; in [12], 34 nM; in [13], 48 nM; in assay [14] it was 27 nM. Moreover, the IC50 in assay [15] worked out at 78 nM.
